Measurements from PMC10866072, “Design, synthesis, molecular modelling and biological evaluation of novel 6-amino-5-cyano-2-thiopyrimidine derivatives as potent anticancer agents against leukemia and apoptotic inducers” (Journal of Enzyme Inhibition and Medicinal Chemistry, 2024).

What was measured:
CCRF-CEM = assay type: cell-based; conditions: one dose 10^-5 M, 48 h
NCI-H460 = assay type: cell-based; conditions: one dose 10^-5 M, 48 h
786-0 = assay type: cell-based; conditions: one dose 10^-5 M, 48 h
HS 578T = assay type: cell-based; conditions: one dose 10^-5 M, 48 h; HS 578T
T-47D = assay type: cell-based; conditions: one dose 10^-5 M, 48 h
SR = assay type: cell-based; conditions: one dose 10^-5 M, 48 h
RXF 393 = assay type: cell-based; conditions: one dose 10^-5 M, 48 h
M14 = assay type: cell-based; conditions: one dose 10^-5 M, 48 h
HOP-92 = assay type: cell-based; conditions: one dose 10^-5 M, 48 h
K-562 = assay type: cell-based; conditions: one dose 10^-5 M, 48 h
SN12C = assay type: cell-based, human; conditions: one dose 10^-5 M, 48 h
BT-549 = assay type: cell-based; conditions: one dose 10^-5 M, 48 h
U251 = assay type: cell-based; conditions: one dose 10^-5 M, 48 h
HCC-2998 = assay type: cell-based; conditions: one dose 10^-5 M, 48 h
NCI/ADR-RES = assay type: cell-based; conditions: one dose 10^-5 M, 48 h
A498 = assay type: cell-based; conditions: one dose 10^-5 M, 48 h
ACHN = assay type: cell-based; conditions: one dose 10^-5 M, 48 h
PC-3 = assay type: cell-based; conditions: one dose 10^-5 M, 48 h
MOLT-4 = assay type: cell-based; conditions: one dose 10^-5 M, 48 h
SK-MEL-2 = assay type: cell-based; conditions: one dose 10^-5 M, 48 h
[1] = tested on: full NCI 60 cell lines panel; conditions: for activity on all 60 cancer cell lines tested (in words): one dose; for Mean % growth: one dose 10^-5 M, 48 h, mean over all cell lines
Procedure: 60 different human tumour cell lines-representing leukaemia, melanoma, and malignancies of the lung, colon, brain, ovary, breast, prostate, and kidney are used in the operation of this screen.
Compounds were dissolved in DMSO: glycerol (91) and were kept in a freezer at −70° C. The synthesised compounds were introduced to the culture at a single concentration of 1 0 ^−5 M and left to incubate for 48 h. A protein-binding dye called sulforhodamine B was used to measure end points (SRB).
A mean graph showing the % growth of treated cells is used to represent the one-dose data. The value provided for the One-dose assay represents growth in comparison to the no-drug control and to the number of cells at time zero. This enables the identification of lethality (values between 0 and 100) as well as growth inhibition (values less than 0). A value of 100, for instance, indicates no growth inhibition. A value of 40 would indicate 60% growth inhibition. A value of 0 indicates no net growth over the course of the experiment. A value of −40 would indicate 40% lethality.
Furthermore, the average sensitivity of all cell lines to the compound is termed as the full panel mean graph midpoints (MG-MID). The complete panel mean graph midpoints refers to the average sensitivity of all cell lines to the chemical (MG-MID). A measure of a compound’s selectivity for a given cell line is the ratio created by dividing the full panel mean graph midpoints (MG-MID) concentration by the individual subpanel MG-MID concentrations (obtained as the average sensitivity of all the cell lines in a given subpanel to the test compound).

MDA-MB-468 = assay type: cell-based; conditions: one dose 10^-5 M, 48 h
COLO 205 = assay type: cell-based; conditions: one dose 10^-5 M, 48 h
RPMI-8226 = assay type: cell-based; conditions: one dose 10^-5 M, 48 h
SK-OV-3 = assay type: cell-based; conditions: one dose 10^-5 M, 48 h
UACC-62 = assay type: cell-based; conditions: one dose 10^-5 M, 48 h
HT29 = assay type: cell-based; conditions: one dose 10^-5 M, 48 h
EKVX = assay type: cell-based; conditions: one dose 10^-5 M, 48 h
CAKI-1 = assay type: cell-based; conditions: one dose 10^-5 M, 48 h
OVCAR-3 = assay type: cell-based; conditions: one dose 10^-5 M, 48 h
SF-539 = assay type: cell-based; conditions: one dose 10^-5 M, 48 h
MCF7 = assay type: cell-based; conditions: one dose 10^-5 M, 48 h
SW-620 = assay type: cell-based; conditions: one dose 10^-5 M, 48 h
TK-10 = assay type: cell-based; conditions: one dose 10^-5 M, 48 h
HL-60(TB) = assay type: cell-based; conditions: one dose 10^-5 M, 48 h
OVCAR-5 = assay type: cell-based; conditions: one dose 10^-5 M, 48 h
MDA-MB-231/ATCC = assay type: cell-based; conditions: one dose 10^-5 M, 48 h
HOP-62 = assay type: cell-based; conditions: one dose 10^-5 M, 48 h
OVCAR-8 = assay type: cell-based; conditions: one dose 10^-5 M, 48 h
A549/ATCC = assay type: cell-based; conditions: one dose 10^-5 M, 48 h
OVCAR-4 = assay type: cell-based; conditions: one dose 10^-5 M, 48 h
NCI-H522 = assay type: cell-based; conditions: one dose 10^-5 M, 48 h
UO-31 = assay type: cell-based; conditions: one dose 10^-5 M, 48 h
UACC-257 = assay type: cell-based; conditions: one dose 10^-5 M, 48 h
LOX IMVI = assay type: cell-based; conditions: one dose 10^-5 M, 48 h
IGROV1 = assay type: cell-based; conditions: one dose 10^-5 M, 48 h
NCI-H226 = assay type: cell-based; conditions: one dose 10^-5 M, 48 h
SF-268 = assay type: cell-based; conditions: one dose 10^-5 M, 48 h
NCI-H23 = assay type: cell-based; conditions: one dose 10^-5 M, 48 h
DU-145 = assay type: cell-based; conditions: one dose 10^-5 M, 48 h
SK-MEL-28 = assay type: cell-based; conditions: one dose 10^-5 M, 48 h
MDA-MB-435 = assay type: cell-based; conditions: one dose 10^-5 M, 48 h
MALME-3M = assay type: cell-based; conditions: one dose 10^-5 M, 48 h
SNB-19 = assay type: cell-based; conditions: one dose 10^-5 M, 48 h
KM12 = assay type: cell-based; conditions: one dose 10^-5 M, 48 h
HCT-116 = assay type: cell-based; conditions: one dose 10^-5 M, 48 h
SK-MEL-5 = assay type: cell-based; conditions: one dose 10^-5 M, 48 h
HCT-15 = assay type: cell-based; conditions: one dose 10^-5 M, 48 h
SF-295 = assay type: cell-based; conditions: one dose 10^-5 M, 48 h

“3-Amino-4–(2,4-dichlorophenyl)-1H-pyrazolo[3,4-d] pyrimidine-6-thiol [Compound 3c]” was tested, and the “% growth” value (CCRF-CEM) was 94.56%, the “% growth” value (NCI-H460) was 115.81% and the “% growth” value (786-0) was 100.98%. For the same substance, the “% growth” value (HS 578T) was 100.24%, the “% growth” value (T-47D) was 92.59% and the “% growth” value (SR) was 97.30%. The “% growth” value (RXF 393) was 114.73%, the “% growth” value (M14) was 106.66% and the “% growth” value (HOP-92) was 76.20%. For the same substance, the “% growth” value (K-562) was 105.30%, the “% growth” value (SN12C) was 105.03% and the “% growth” value (BT-549) was 100.27%. The “% growth” value (U251) was 103.99%, the “% growth” value (HCC-2998) was 103.06% and the “% growth” value (NCI/ADR-RES) was 114.09%. For the same substance, the “% growth” value (A498) was 125.09%, the “% growth” value (ACHN) was 106.88% and the “% growth” value (PC-3) was 96.81%. For the same substance, the “% growth” value (MOLT-4) was 90.06%, the “% growth” value (SK-MEL-2) was 108.60% and the “activity on all 60 cancer cell lines tested (in words)” value [1] was “weak activity”. The Mean % growth [1] was 104.17%, the “% growth” value (MDA-MB-468) was 110.26% and the “% growth” value (COLO 205) was 120.01%. For the same substance, the “% growth” value (RPMI-8226) was 108.63%, the “% growth” value (SK-OV-3) was 86.72% and the “% growth” value (UACC-62) was 93.81%. The “% growth” value (HT29) was 110.65%, the “% growth” value (EKVX) was 115.88% and the “% growth” value (CAKI-1) was 96.86%. For the same substance, the “% growth” value (OVCAR-3) was 109.08%, the “% growth” value (SF-539) was 94.60% and the “% growth” value (MCF7) was 95.64%. For the same substance, the “% growth” value (SW-620) was 106.47%, the “% growth” value (TK-10) was 146.75% and the “% growth” value (HL-60(TB)) was 89.08%. For the same substance, the “% growth” value (OVCAR-5) was 108.30%, the “% growth” value (MDA-MB-231/ATCC) was 94.87% and the “% growth” value (HOP-62) was 92.49%. The “% growth” value (OVCAR-8) was 109.69%, the “% growth” value (A549/ATCC) was 104.45% and the “% growth” value (OVCAR-4) was 105.05%. The “% growth” value (NCI-H522) was 95.34%, the “% growth” value (UO-31) was 85.75% and the “% growth” value (UACC-257) was 107.51%. For the same substance, the “% growth” value (LOX IMVI) was 106.21%, the “% growth” value (IGROV1) was 105.59% and the “% growth” value (NCI-H226) was 106.10%. The “% growth” value (SF-268) was 108.35%, the “% growth” value (NCI-H23) was 103.34% and the “% growth” value (DU-145) was 119.84%. For the same substance, the “% growth” value (SK-MEL-28) was 115.84%, the “% growth” value (MDA-MB-435) was 110.71% and the “% growth” value (MALME-3M) was 92.32%. For the same substance, the “% growth” value (SNB-19) was 93.39%, the “% growth” value (KM12) was 104.75% and the “% growth” value (HCT-116) was 112.94%. For the same substance, the “% growth” value (SK-MEL-5) was 108.42%, the “% growth” value (HCT-15) was 111.27% and the “% growth” value (SF-295) was 94.52%.
For “4-Amino-6–(2,4-dichlorophenyl)-2-mercaptopyrimidine-5-carboximidohydrazide [Compound 2c]”, the “% growth” value (CCRF-CEM) was 75.32%, the “% growth” value (NCI-H460) was 89.85% and the “% growth” value (786-0) was 90.40%. The “% growth” value (HS 578T) was 99.16%, the “% growth” value (T-47D) was 73.88% and the “% growth” value (SR) was 69.30%. The “% growth” value (RXF 393) was 94.62%, the “% growth” value (M14) was 95.64% and the “% growth” value (HOP-92) was 71.67%. The “% growth” value (K-562) was 91.24%, the “% growth” value (SN12C) was 91.26% and the “% growth” value (BT-549) was 81.84%. For the same substance, the “% growth” value (U251) was 103.26%, the “% growth” value (HCC-2998) was 108.77% and the “% growth” value (NCI/ADR-RES) was 103.23%. For the same substance, the “% growth” value (A498) was 105.32%, the “% growth” value (ACHN) was 76.09% and the “% growth” value (PC-3) was 77.58%. The “% growth” value (MOLT-4) was 94.43%, the “% growth” value (SK-MEL-2) was 95.39% and the “activity on all 60 cancer cell lines tested (in words)” value [1] was “weak activity”. For the same substance, the Mean % growth [1] was 90.71%, the “% growth” value (MDA-MB-468) was 90.16% and the “% growth” value (COLO 205) was 100.56%. For the same substance, the “% growth” value (RPMI-8226) was 87.93%, the “% growth” value (SK-OV-3) was 94.00% and the “% growth” value (UACC-62) was 84.96%. The “% growth” value (HT29) was 89.84%, the “% growth” value (EKVX) was 83.88% and the “% growth” value (CAKI-1) was 83.79%. For the same substance, the “% growth” value (OVCAR-3) was 104.96%, the “% growth” value (SF-539) was 85.28% and the “% growth” value (MCF7) was 79.62%. The “% growth” value (SW-620) was 87.86%, the “% growth” value (TK-10) was 111.85% and the “% growth” value (HL-60(TB)) was 57.91%. For the same substance, the “% growth” value (OVCAR-5) was 98.09%, the “% growth” value (MDA-MB-231/ATCC) was 77.09% and the “% growth” value (HOP-62) was 95.11%. For the same substance, the “% growth” value (OVCAR-8) was 94.00%, the “% growth” value (A549/ATCC) was 89.50% and the “% growth” value (OVCAR-4) was 82.22%. The “% growth” value (NCI-H522) was 68.80%, the “% growth” value (UO-31) was 71.44% and the “% growth” value (UACC-257) was 102.94%. The “% growth” value (LOX IMVI) was 86.57%, the “% growth” value (IGROV1) was 104.68% and the “% growth” value (NCI-H226) was 90.50%. The “% growth” value (SF-268) was 104.49%, the “% growth” value (NCI-H23) was 95.68% and the “% growth” value (DU-145) was 107.65%. For the same substance, the “% growth” value (SK-MEL-28) was 109.76%, the “% growth” value (MDA-MB-435) was 96.41% and the “% growth” value (MALME-3M) was 94.17%. For the same substance, the “% growth” value (SNB-19) was 86.22%, the “% growth” value (KM12) was 100.35% and the “% growth” value (HCT-116) was 85.00%. The “% growth” value (SK-MEL-5) was 97.76%, the “% growth” value (HCT-15) was 92.01% and the “% growth” value (SF-295) was 93.63%.
